Assay: xn = mol fraction of the nth substance listed
Settings: 101 kPa

O=S1(=O)CCCC1 + CC(C)O
viscosity [mPa·s]
Settings	x1 = 0.0756	x1 = 0.1606	x1 = 0.2446	x1 = 0.3418	x1 = 0.4362	x1 = 0.5514	x1 = 0.6552	x1 = 0.754	x1 = 0.8754
303.15 K	1.634	1.705	1.823	2.067	2.386	2.94	3.662	4.701	6.713
308.15 K	1.438	1.489	1.616	1.837	2.128	2.626	3.274	4.19	5.992
313.15 K	–	1.324	1.442	1.644	1.908	2.356	2.945	3.754	5.332

O=S1(=O)CCCC1 + CCCCO
viscosity [mPa·s]
Settings	x1 = 0.1066	x1 = 0.191	x1 = 0.2871	x1 = 0.3889	x1 = 0.4851	x1 = 0.5891	x1 = 0.6937	x1 = 0.7935	x1 = 0.9023
303.15 K	2.084	2.148	2.32	2.582	2.914	3.395	4.117	5.218	7.192
308.15 K	1.855	1.912	2.06	2.291	2.59	3.028	3.676	4.65	6.369
313.15 K	1.659	1.711	1.842	2.048	2.316	2.715	3.3	4.167	5.669

Nc1ccccc1Cl + Clc1ccccc1Cl
viscosity [mPa·s]
Settings	x1 = 0.1063	x1 = 0.2111	x1 = 0.3145	x1 = 0.4164	x1 = 0.517	x1 = 0.6162	x1 = 0.7141	x1 = 0.8107	x1 = 0.906
303.15 K	1.4	1.584	1.786	2.008	2.251	2.516	2.805	3.119	3.458
308.15 K	1.295	1.461	1.642	1.84	2.054	2.287	2.539	2.81	3.101
313.15 K	1.192	1.342	1.506	1.683	1.875	2.081	2.303	2.54	2.792
318.15 K	1.102	1.24	1.39	1.551	1.724	1.909	2.105	2.313	2.532
